According to ChEMBL document CHEMBL1140088, “N9-substituted 2,4-diaminoquinazolines: synthesis and biological evaluation of lipophilic inhibitors of pneumocystis carinii and toxoplasma gondii dihydrofolate reductase” (J Med Chem, 2008):

How the values were obtained:
[1] = target: T1, Dihydrofolate reductase (Mycobacterium avium, UniProt O30463); assay: Inhibition of Mycobacterium avium dihydrofolate reductase
T1 sequence (O30463 whole entry): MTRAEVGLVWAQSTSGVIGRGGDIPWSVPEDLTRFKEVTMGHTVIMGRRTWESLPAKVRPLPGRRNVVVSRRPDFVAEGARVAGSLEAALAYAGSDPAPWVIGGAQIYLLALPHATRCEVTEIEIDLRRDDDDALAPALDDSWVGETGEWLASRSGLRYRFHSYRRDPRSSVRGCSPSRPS

[2] = target: T2, Dihydrofolate reductase (Pneumocystis carinii, UniProt P16184)
T2 sequence (P16184 whole entry): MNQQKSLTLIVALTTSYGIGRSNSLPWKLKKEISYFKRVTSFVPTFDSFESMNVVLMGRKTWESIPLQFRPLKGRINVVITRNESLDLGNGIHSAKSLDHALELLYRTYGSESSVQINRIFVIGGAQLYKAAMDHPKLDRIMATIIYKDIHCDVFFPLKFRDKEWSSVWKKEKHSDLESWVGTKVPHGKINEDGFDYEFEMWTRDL
Description: Inhibition of Pneumocystis carinii dihydrofolate reductase

[3] = target: T3, Dihydrofolate reductase (Rattus norvegicus, UniProt Q920D2)
T3 sequence (Q920D2 whole entry): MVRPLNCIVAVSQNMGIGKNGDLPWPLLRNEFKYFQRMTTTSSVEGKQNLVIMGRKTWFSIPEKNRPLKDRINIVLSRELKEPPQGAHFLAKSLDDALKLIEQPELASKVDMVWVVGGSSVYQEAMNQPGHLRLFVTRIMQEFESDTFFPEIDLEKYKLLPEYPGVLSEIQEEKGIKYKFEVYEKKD
Description: Inhibition of rat liver dihydrofolate reductase

[4] = target: T4, Bifunctional dihydrofolate reductase-thymidylate synthase (Toxoplasma gondii, UniProt Q07422)
T4 sequence (Q07422 whole entry): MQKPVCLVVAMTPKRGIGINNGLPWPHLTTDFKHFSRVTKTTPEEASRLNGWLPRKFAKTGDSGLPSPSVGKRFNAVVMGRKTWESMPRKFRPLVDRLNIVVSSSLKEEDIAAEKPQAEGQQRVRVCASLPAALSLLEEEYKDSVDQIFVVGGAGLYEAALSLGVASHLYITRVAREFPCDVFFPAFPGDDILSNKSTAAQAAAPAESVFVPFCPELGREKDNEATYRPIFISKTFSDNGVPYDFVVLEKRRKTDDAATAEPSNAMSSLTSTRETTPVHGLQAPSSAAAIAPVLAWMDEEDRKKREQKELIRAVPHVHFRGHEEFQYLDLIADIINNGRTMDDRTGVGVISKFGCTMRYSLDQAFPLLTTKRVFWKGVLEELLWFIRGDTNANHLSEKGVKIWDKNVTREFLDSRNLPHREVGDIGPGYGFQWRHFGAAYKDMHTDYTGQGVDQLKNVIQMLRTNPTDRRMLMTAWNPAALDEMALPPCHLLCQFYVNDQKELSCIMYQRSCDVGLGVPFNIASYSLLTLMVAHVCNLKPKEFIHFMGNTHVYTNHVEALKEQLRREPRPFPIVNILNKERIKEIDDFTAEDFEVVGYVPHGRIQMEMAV
Description: Inhibition of Toxoplasma gondii dihydrofolate reductase

Structure (SMILES) | IC50 [1] | IC50 [2] | IC50 [3] | IC50 [4]
CCN(Cc1cc(OC)ccc1OC)c1ccc2nc(N)nc(N)c2c1 | 0.98 nM | 9.9 nM | 4.8 nM | 3.7 nM
CCN(Cc1cc(Cl)cc(Cl)c1Cl)c1ccc2nc(N)nc(N)c2c1 | 14 nM | 6.9 nM | 19 nM | 19 nM
CCN(Cc1ccc2ccccc2c1)c1ccc2nc(N)nc(N)c2c1 | 2.3 nM | 7.2 nM | 14.5 nM | 12 nM
CCN(Cc1cccc2ccccc12)c1ccc2nc(N)nc(N)c2c1 | 2.9 nM | 2.5 nM | 6.5 nM | 7.8 nM
CCN(Cc1ccccc1)c1ccc2nc(N)nc(N)c2c1 |  | 21 nM | 4.1 nM | 3.6 nM
CCCN(Cc1cc(OC)ccc1OC)c1ccc2nc(N)nc(N)c2c1 | 3.3 nM | 38 nM | 5.3 nM | 9.5 nM
